Columns and labels:
[1] = system: D1-Cre mice with +HTP or ddHTP in left dorsal striatum; assay: open-field turning (locomotor) assay, unilateral delivery to dSPNs of dorsal striatum; format: in vivo, mouse; conditions: for open-field turning, +HTP mice / open-field turning, ddHTP mice: 10:1 mixture with Alexa488.1DART.2 infused into left dorsal striatum
Experimental: Mice: For behavioral experiments, mice strains included Drd1A-Cre (GENSAT EY262). For slice experiments, Drd1A-Cre were used. Mice were singly housed post-surgery, in a 12-hour reverse light cycle, with food and water provided ad libitum. Recombinant adeno-associated viral (rAAV) vectors.
Behavioral assays: Assays were performed at least 3 weeks after viral injection to allow for recombinant protein expression. Mice were acclimated to head-fixation for 3 consecutive days prior to behavioral experiments. Reagents were infused into the brain via the cranial cannula. Immediately following infusion, mice were placed into open-field chambers (27 cm×27 cm) in the dark, and behavior was recorded using infrared video.
These advances were combined in a mouse locomotor assay. AAV-DIO-^+HTPGPI or AAV-DIO-ddHTPGPI were expressed in the left dorsal striatum of D1-Cre mice, and implanted a unilateral cannula. Three weeks later, a baseline open-field behavior (saline infusion) was obtained; followed one week later by infusion of a 10:1 mixture of YM90K.1DART.2/Alexa488.1DART.2 (FIG. 3A). Mice were perfused for histology 24 hrs later, and quantitative measurement of the integrated Alexa capture over the dorsal striatum was performed. The magnitude of open-field turning vs dye capture (FIG. 3C) was then plotted A control was also performed as above using DART.1 and non-DART fluorescent dye (fluorogold) (FIG. 3B and FIG. 3D). Three points merit emphasis. […] Second, the data yielded a tight correlation between behavioral effects and histology; in particular the four animals with the weakest behavioral impact corresponded to those with little dye capture, providing an unbiased parameter with which to exclude these animals due to technical failure. Such a correlation was not seen with the original technology, despite efforts to estimate cannula patency with a non-DART fluorescent tracer. Third, in these behaving mice, YM90K.1DART.2 was substantially more efficacious than its predecessor, driving a 3-fold larger impact in a locomotor assay following unilateral delivery to dSPNs of the dorsal striatum (FIG. 3E and FIG. 3F). Experiments in acute striatal brain slice confirmed the performance boost afforded by DART.2. Low-dose, YM90K.1DART.2 produced rapid AMPAR antagonism on +HTP neurons, achieving half-block after only 5 min of a 0.3 µM dose. This represents a ˜10-fold acceleration in comparison to its predecessor, which required 15 min of a 1 µM dose to achieve a similar block. Neither reagent produced any measurable impact on −HTP or ddHTP neurons at these doses. However, only YM90K.1DART.2 offered kinetics fast enough for routine slice physiology experiments.

[2] = system: AMPAR; assay: acute striatal brain slice electrophysiology, AMPAR antagonism; format: cell-based, mouse
Experimental: Electrophysiology. Preparation of Brain slices: Mice (8-10 weeks) were injected AAV10 HaloTag™-dTomato to striatum or ventral tegmental area (VTA). After 3-5 weeks, mice were deeply anesthetized with isoflurane and euthanized by decapitation. Coronal brain slices ([…]) containing striatum or VTA were prepared by standard methods using a Vibratome (Leica, VT 1200S), in ice-cold high sucrose cutting solution containing (in mM) 220 sucrose, 3 KCl, 1.25 NaH2PO4, 25 NaHCO3, 12 MgSO4.7H2O, 10 glucose, and 0.2 CaCl2) bubbled with 95% O2 and 5% CO2. […]
Whole-cell patch-clamp recording: The brain slices or retinas were perfused with bubbled aCSF at 29-30° C. with a 2 ml/min flow rate. […] Series resistance was monitored using 5-10 mV hyperpolarizing step throughout the experiment, and cells were discarded if series resistance changed more than ˜15% during the experiment. […] Statistical significance was determined using Student's t or one-way or two-way ANOVA tests. eIPSCs or eEPSCs decay time constants were obtained by fitting a single-exponential function, I(t)=I exp(−t/T)+ISS, where I(t) is the amplitude of the current at time t and ISS is the steady-state current, I is instantaneous current subtracted from Iss, and t is the time constant of decay. […]

COc1cc(CCCCl)ccc1CCOCCNC(=O)c1ccc(CNC(=O)CCOCCOCCOCCOCCOCCOCCOCCOCCOCCOCCOCCOCCOCCOCCOCCOCCOCCOCCOCCOCCOCCOCCOCCOCCOCCOCCOCCOCCOCCOCCOCCOCCOCCOCCOCCOCCn2cc(COCCOCCOCCOCCOCCOCCNC(=O)CCCn3c(=O)c(=O)[nH]c4cc([N+](=O)[O-])c(-n5ccnc5)cc43)nn2)cc1 [YM90K.1DART.2]
open-field turning, +HTP mice [1]: a turning bias in +HTP mice was seen
open-field turning, ddHTP mice [1]: no turning bias
open-field turning, +HTP mice ([1]; listed as YM90K.1^DART.2): turned in proportion to dye capture
open-field turning, ddHTP mice ([1]; listed as YM90K.1^DART.2): little turning
impact in locomotor assay / behavioral potency in comparison to predecessor ([1]; unilateral delivery to dSPNs of the dorsal striatum): 3 fold
acceleration in comparison to predecessor [2]: ~10 fold
time to half-block of AMPAR ([2]; +HTP neurons, 0.3 µM dose): 5 min

Source: patent US20250213700A1, “COMPOUNDS, COMPOSITIONS, AND METHODS FOR CELL-SPECIFIC PHARMACOLOGY” (Duke University, priority 2022, published 2025)
